The values below come from patent US20230295118A1 (EnhancedBio Inc., priority 2022, published 2023).

Structures are written as SMILES. pIC50: −log10 of the molar value. Where only a bound is given, the exact number is not on record here.

What all share (type): cell-based
Test [1] concerns mantle cell lymphoma cell (Mino or JeKo-1). As to the kind of experiment: Antiproliferative effect, MTS cell viability assay. Particulars: 72 h; for pIC50: mantle cell lymphoma cell (Mino or JeKo-1), MTS assay, read-out: IC50 (anti-proliferation). In short, it runs like this:
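MTS read-out (formazan absorbance at 490 nm) after 72 h exposure of Mino cells to 0–1 μM compound (0.0001, 0.001, 0.01, 0.1, 1 μM). Palbociclib and abemaciclib served as positive controls.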

The next test addresses T1, CDK6 (Homo sapiens, UniProt Q00534).
T1 construct: endogenous in cells
As to the kind of experiment: CDK6 degradation (DC50, Dmax).

The next test concerns the target T2, CDK4 (Homo sapiens, UniProt P11802).
T2 construct: endogenous in cells
As to the kind of experiment: CDK4 degradation (DC50, Dmax).

T2 sequence (P11802 whole entry): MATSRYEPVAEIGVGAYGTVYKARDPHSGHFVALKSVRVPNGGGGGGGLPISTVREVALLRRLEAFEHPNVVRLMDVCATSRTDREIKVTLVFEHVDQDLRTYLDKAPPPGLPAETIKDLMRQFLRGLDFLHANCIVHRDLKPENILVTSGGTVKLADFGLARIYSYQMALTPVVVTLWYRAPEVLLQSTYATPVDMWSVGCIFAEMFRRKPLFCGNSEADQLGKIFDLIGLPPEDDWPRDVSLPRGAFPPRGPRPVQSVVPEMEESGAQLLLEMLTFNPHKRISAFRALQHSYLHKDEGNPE
T1 sequence (Q00534 whole entry): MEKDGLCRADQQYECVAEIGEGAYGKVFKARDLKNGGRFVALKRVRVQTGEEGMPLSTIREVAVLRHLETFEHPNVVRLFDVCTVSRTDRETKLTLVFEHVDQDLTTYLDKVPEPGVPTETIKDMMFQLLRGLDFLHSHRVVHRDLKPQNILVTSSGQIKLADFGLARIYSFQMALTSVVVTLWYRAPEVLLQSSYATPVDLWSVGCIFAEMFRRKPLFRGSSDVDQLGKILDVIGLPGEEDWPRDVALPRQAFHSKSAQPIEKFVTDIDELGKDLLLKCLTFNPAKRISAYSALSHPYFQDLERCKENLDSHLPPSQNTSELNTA

A word on the DC50: it is the concentration giving 50% degradation. High values mean degradation only at high concentration, low ones degradation at low concentration. As a reminder, the Dmax is the largest share of the target that was removed. A high value points to deep degradation. Take `CC(=O)c1c(C)c2cnc(Nc3ccc(N4CCN(C(=O)N5CCN(CCN6CCN(c7ccc8c(c7)C(=O)N(C7CCC(=O)NC7=O)C8=O)CC6)CC5)CC4)cn3)nc2n(C2CCCC2)c1=O` (centres unmarked) [Compound 21, 5-(4-(2-(4-(4-(6-((6-acetyl-8-cyclopentyl-5-methyl-7-oxo-7,8-dihydropyrido[2,3-d]pyrimidin-2-yl)amino)pyridin-3-yl)piperazine-1-carbonyl)piperazin-1-yl)ethyl)piperazin-1-yl)-2-(2,6-dioxopiperidin-3-yl)isoindoline-1,3-dione]: in test [1], the pIC50 was 6.70 to 7.30. The DC50 on CDK6 and at CDK4 was 50 to 200 nM throughout. The Dmax at CDK6 and on CDK4 was more than 60% each time.

In the case of `CC(=O)c1c(C)c2cnc(Nc3ccc(N4CCN(CC5CCN(C(=O)N6CCC(C7CCN(c8ccc9c(c8)C(=O)N(C8CCC(=O)NC8=O)C9=O)CC7)CC6)CC5)CC4)cn3)nc2n(C2CCCC2)c1=O` (centres unmarked) [Compound 82, 5-(1′-(4-((4-(6-((6-acetyl-8-cyclopentyl-5-methyl-7-oxo-7,8-dihydropyrido[2,3-d]pyrimidin-2-yl)amino)pyridin-3-yl)piperazin-1-yl)methyl)piperidine-1-carbonyl)-[4,4′-bipiperidin]-1-yl)-2-(2,6-dioxopiperidin-3-yl) isoindoline-1,3-dione], the pIC50 in test [1] was less than 6.70. At CDK6, this compound showed a DC50 of more than 200 nM and a maximal degradation (Dmax) of more than 50%. On CDK4, this compound returned a DC50 of more than 200 nM and a Dmax of more than 50%.

Regarding `CC(=O)c1c(C)c2cnc(Nc3ccc(N4CCN(C(=O)N5CCC(CN6CCN(c7ccc8c(c7)CN(C7CCC(=O)NC7=O)C8=O)CC6)CC5)CC4)cn3)nc2n(C2CCCC2)c1=O` (centres unmarked) [Compound 12, 3-(5-(4-((1-(4-(6-((6-acetyl-8-cyclopentyl-5-methyl-7-oxo-7,8-dihydropyrido[2,3-d]pyrimidin-2-yl)amino)pyridin-3-yl)piperazine-1-carbonyl)piperidin-4-yl)methyl)piperazin-1-yl)-1-oxoisoindolin-2-yl)piperidine-2,6-dione], in test [1], the pIC50 is 6.70 to 7.30. Moreover, on CDK6, the DC50 was more than 200 nM and the Dmax was more than 60%. Further, on CDK4, the DC50 is more than 200 nM and the Dmax is more than 60%.

For the compound `Cc1nc2c(F)cc(-c3nc(Nc4ccc(CN5CCN(C6CCN(c7ccc(N8CCC(=O)NC8=O)cc7)CC6)CC5)cn4)ncc3F)cc2n1C(C)C` [Compound 109, 1-(4-(4-(4-((6-((5-fluoro-4-(4-fluoro-1-isopropyl-2-methyl-1H-benzo[d]imidazol-6-yl)pyrimidin-2-yl)amino)pyridin-3-yl)methyl)piperazin-1-yl)piperidin-1-yl)phenyl) dihydropyrimidine-2,4(1H,3H)-dione], the pIC50 in test [1] was more than 7.30. On CDK6, the DC50 is less than 50 nM and the Dmax is more than 80%. Also, on CDK4, the DC50 was less than 50 nM and the Dmax was more than 80%.

Regarding `CN(C)C(=O)c1cc2cnc(Nc3ccc(N4CCN(CCCNc5ccc6c(c5)CN(C5CCC(=O)NC5=O)C6=O)CC4)cn3)nc2n1C1CCCC1` (centres unmarked) [Compound 76, 7-cyclopentyl-2-((5-(4-(3-((2-(2,6-dioxopiperidin-3-yl)-1-oxoisoindolin-5-yl)amino)propyl)piperazin-1-yl)pyridin-2-yl)amino)-N,N-dimethyl-7H-pyrrolo[2,3-d]pyrimidine-6-carboxamide], the pIC50 in test [1] is more than 7.30. In test [1] (Mino cells, 0-1 μM, result in words), the “inhibition of cell proliferation of Mino cells” value is “dose-dependent inhibition of cell proliferation”. At CDK6, this compound gave a half-maximal degradation concentration (DC50) of less than 50 nM and a Dmax of more than 80%. On CDK4, this compound registered a DC50 of less than 50 nM and a Dmax of more than 80%.
